Measured values taken from PMC4505863 (ACS Chemical Neuroscience, 2014).
Entries after “also recorded” stand apart in the source; their conditions may differ.

Columns and labels:
5-HT6 = 5-HT6 (Homo sapiens, UniProt P50406); assay: PDSP screening affinity 5-HT6; assay type: binding; conditions: 5-HT6 affinity
5-HT7 = 5-HT7 (Homo sapiens, UniProt P34969); assay: PDSP screening affinity 5-HT7; assay type: binding; conditions: 5-HT7 affinity
r5-HT2A = r5-HT2A (Rattus norvegicus, UniProt P14842); assay: Ca2+ mobilization assay; assay type: cell-based; conditions: for Emax: read-out: r5-HT2A Emax, percentage of the maximum response to 5-HT
5-HT3 = target: T1, 5-HT3 (Homo sapiens, UniProt P46098); assay: PDSP screening affinity 5-HT3; assay type: binding
T1 sequence (P46098 24-478): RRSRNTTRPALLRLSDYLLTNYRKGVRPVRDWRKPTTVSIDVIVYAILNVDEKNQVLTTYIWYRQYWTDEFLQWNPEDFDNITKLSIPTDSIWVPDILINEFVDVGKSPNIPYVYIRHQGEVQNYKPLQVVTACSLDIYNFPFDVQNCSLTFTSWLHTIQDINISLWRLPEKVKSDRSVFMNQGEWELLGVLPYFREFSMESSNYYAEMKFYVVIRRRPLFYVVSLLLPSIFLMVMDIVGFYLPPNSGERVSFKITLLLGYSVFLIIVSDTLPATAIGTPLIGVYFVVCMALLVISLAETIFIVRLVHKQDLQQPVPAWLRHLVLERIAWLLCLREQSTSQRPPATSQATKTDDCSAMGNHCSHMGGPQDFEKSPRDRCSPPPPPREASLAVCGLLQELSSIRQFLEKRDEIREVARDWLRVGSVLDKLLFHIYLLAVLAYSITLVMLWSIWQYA

5-HT1D = 5-HT1D (Homo sapiens, UniProt P28221); assay: PDSP screening affinity 5-HT1D; assay type: binding
h5-HT2B = h5-HT2B (Homo sapiens, UniProt P41595); assay: Ca2+ mobilization assay; assay type: cell-based; conditions: for Emax: HEK293, read-out: h5-HT2B Emax
Male C57BL/6J mice = assay: Mouse head twitch response; conditions: for activity in the HTR assay (active / inactive): doses up to 30 mg/kg
5-HT2A receptor [1] = target: T2, 5-HT2A receptor (Homo sapiens, UniProt P28223); assay: h5-HT2A affinity, agonist radioligand [125I]DOI; assay type: binding
5-HT1A = target: T3, 5-HT1A (Homo sapiens, UniProt P08908); assay: PDSP screening affinity 5-HT1A; assay type: binding
T3 sequence (P08908 1-422): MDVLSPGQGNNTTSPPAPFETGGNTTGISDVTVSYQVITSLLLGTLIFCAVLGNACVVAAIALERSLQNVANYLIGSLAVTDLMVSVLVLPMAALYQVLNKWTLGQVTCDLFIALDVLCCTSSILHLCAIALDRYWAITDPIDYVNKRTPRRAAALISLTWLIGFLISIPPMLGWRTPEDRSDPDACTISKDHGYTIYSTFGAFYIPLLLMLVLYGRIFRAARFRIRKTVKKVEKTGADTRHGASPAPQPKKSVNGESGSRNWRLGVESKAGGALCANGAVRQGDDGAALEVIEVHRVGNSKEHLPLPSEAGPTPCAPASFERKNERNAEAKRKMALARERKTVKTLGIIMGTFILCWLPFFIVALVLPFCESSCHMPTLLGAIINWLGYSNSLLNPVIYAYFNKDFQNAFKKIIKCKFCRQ

h5-HT2A = h5-HT2A (Homo sapiens, UniProt P28223); assay: Ca2+ mobilization assay; assay type: cell-based; conditions: for Emax: HEK293, read-out: h5-HT2A Emax, percentage of the maximum response to 5-HT
human 5-HT2C receptor [2] = target: T4, human 5-HT2C receptor (Homo sapiens, UniProt P28335); assay: h5-HT2C affinity, agonist radioligand [125I]DOI; assay type: binding
T4 sequence (P28335 33-458): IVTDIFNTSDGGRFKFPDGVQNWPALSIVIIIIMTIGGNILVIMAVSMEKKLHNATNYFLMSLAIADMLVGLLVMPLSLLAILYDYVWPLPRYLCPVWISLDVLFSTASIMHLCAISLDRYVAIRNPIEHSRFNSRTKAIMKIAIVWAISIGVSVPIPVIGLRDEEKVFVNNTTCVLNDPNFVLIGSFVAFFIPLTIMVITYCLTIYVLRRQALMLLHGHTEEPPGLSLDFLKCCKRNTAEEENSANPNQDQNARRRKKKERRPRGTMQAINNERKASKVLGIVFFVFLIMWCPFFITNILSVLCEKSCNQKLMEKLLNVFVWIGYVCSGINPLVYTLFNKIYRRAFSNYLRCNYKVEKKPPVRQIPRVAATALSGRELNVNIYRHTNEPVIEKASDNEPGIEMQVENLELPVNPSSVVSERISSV

5-HT1B = 5-HT1B (Homo sapiens, UniProt P28222); assay: PDSP screening affinity 5-HT1B; assay type: binding
human 5-HT2C receptor [3] = target: T4, human 5-HT2C receptor; assay: h5-HT2C affinity, antagonist radioligand [3H]mesulergine; assay type: binding
5-ht1e = 5-ht1e (Homo sapiens, UniProt P28566); assay: PDSP screening affinity 5-ht1e; assay type: binding
5-HT2B = 5-HT2B (Homo sapiens, UniProt P41595); assay: PDSP screening affinity 5-HT2B; assay type: binding
h5-HT2C = target: T5, h5-HT2C (Homo sapiens, UniProt P28335); assay: Ca2+ mobilization assay; assay type: cell-based; conditions: for Emax: HEK293, read-out: h5HT2C Emax
T5 sequence (P28335 33-458): T4 sequence (P28335 33-458)

5-HT2A receptor [4] = target: T2, 5-HT2A receptor; assay: h5-HT2A affinity, antagonist radioligand [3H]ketanserin; assay type: binding
5-ht5a = 5-ht5a (Homo sapiens, UniProt P47898); assay: PDSP screening affinity 5-ht5a; assay type: binding
r5-HT2C = target: T6, r5-HT2C (Rattus norvegicus, UniProt P08909); assay: Ca2+ mobilization assay; assay type: cell-based; conditions: for Emax: read-out: r5-HT2C Emax
T6 sequence (P08909 33-460): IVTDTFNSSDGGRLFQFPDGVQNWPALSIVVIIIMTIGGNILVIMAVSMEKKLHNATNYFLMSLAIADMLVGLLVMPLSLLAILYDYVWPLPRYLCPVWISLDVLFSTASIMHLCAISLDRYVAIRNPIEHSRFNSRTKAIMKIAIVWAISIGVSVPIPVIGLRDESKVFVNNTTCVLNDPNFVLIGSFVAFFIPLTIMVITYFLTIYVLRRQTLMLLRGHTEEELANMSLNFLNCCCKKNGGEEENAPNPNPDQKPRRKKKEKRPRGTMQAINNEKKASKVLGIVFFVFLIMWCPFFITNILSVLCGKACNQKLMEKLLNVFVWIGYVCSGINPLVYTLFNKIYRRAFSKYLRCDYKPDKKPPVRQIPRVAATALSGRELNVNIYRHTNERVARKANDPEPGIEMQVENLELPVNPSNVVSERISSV

[5] = r5-HT2A EC50, Ca2+ mobilization
[6] = h5-HT2B EC50, Ca2+ mobilization
[7] = r5-HT2C pEC50 ± SEM, Ca2+ mobilization
[8] = r5-HT2C EC50, Ca2+ mobilization

Sequence of 5-HT7 (P34969 whole entry): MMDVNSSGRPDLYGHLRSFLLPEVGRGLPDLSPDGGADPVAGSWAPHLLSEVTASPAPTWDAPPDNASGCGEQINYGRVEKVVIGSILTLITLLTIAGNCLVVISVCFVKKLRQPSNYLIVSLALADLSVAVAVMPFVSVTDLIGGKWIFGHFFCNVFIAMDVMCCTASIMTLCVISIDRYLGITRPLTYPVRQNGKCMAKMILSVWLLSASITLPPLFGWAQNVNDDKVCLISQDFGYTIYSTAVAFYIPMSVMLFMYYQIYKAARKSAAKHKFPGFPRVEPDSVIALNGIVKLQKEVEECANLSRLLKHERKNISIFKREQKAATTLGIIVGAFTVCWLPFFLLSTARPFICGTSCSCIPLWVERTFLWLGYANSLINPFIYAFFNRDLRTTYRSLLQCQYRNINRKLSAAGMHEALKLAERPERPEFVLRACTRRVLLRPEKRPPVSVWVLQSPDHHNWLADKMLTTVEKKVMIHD
Sequence of 5-HT1D (P28221 whole entry): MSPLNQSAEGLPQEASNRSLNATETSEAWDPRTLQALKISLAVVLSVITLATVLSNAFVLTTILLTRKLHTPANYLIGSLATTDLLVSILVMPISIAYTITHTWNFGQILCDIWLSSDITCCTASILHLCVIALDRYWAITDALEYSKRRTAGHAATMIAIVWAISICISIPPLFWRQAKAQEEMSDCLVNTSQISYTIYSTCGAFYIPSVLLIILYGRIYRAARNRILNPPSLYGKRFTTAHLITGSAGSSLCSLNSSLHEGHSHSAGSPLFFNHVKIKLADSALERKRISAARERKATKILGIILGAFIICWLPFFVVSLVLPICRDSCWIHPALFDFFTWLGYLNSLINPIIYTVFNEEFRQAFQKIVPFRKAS
Sequence of 5-HT6 (P50406 whole entry): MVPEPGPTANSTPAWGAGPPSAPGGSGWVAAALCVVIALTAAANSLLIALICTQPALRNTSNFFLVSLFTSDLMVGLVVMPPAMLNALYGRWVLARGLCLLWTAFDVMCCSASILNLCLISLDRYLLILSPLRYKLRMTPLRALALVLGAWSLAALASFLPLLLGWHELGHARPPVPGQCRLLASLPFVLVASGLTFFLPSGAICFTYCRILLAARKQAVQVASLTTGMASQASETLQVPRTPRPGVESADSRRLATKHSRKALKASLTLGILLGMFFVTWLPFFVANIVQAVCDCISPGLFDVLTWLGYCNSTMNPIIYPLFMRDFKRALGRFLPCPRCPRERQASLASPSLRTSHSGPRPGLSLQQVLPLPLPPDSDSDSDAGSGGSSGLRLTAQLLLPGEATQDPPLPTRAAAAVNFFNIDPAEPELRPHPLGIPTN
Sequence of 5-HT1B (P28222 whole entry): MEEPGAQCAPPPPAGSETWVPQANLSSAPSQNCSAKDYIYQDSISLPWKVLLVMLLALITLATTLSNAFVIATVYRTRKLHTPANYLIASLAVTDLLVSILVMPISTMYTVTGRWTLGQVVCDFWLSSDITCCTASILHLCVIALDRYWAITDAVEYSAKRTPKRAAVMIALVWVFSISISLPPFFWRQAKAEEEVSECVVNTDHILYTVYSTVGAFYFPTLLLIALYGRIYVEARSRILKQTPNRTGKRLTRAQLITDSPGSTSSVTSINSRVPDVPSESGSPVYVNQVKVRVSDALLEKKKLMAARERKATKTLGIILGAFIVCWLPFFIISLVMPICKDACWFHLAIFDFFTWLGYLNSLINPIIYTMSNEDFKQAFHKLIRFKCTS
T2 sequence (P28223 whole entry): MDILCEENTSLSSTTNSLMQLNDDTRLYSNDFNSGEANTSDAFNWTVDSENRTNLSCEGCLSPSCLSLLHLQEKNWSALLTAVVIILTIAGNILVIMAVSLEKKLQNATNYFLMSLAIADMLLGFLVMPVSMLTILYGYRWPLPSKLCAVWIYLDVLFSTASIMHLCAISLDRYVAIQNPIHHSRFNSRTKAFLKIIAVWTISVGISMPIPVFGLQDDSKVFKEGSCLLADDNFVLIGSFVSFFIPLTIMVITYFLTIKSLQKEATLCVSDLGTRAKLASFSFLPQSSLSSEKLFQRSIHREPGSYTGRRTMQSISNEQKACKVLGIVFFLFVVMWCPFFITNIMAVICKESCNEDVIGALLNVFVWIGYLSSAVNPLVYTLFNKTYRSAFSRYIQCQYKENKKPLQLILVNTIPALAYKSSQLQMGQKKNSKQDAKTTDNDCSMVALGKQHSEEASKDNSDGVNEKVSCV
Sequence of h5-HT2A (P28223 whole entry): as above
Sequence of h5-HT2B (P41595 whole entry): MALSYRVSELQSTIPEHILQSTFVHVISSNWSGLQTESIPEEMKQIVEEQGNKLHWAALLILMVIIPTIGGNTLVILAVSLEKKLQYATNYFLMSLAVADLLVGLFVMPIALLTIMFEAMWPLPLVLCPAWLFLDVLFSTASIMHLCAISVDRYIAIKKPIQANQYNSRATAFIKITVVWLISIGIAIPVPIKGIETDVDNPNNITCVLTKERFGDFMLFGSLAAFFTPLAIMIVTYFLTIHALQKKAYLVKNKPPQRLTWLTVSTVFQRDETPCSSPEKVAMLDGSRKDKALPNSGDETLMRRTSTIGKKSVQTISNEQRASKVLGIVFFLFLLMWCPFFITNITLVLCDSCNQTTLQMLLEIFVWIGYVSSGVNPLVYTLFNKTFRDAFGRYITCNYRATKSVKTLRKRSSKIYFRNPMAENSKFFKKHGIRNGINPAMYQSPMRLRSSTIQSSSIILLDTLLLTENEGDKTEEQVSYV
Sequence of 5-HT2B (P41595 whole entry): as above
Sequence of r5-HT2A (P14842 whole entry): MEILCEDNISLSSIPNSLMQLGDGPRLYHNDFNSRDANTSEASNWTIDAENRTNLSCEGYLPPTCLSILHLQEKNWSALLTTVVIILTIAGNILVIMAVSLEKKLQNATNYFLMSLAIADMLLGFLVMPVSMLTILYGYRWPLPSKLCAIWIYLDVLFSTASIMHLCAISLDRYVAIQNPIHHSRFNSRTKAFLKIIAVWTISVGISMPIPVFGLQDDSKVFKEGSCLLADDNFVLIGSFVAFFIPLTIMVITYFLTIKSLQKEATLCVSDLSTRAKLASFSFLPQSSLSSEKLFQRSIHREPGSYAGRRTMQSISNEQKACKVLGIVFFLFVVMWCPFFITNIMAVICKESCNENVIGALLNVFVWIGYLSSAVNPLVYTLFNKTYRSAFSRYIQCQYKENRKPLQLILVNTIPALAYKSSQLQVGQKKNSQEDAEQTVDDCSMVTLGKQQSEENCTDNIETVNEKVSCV
Sequence of 5-ht5a (P47898 whole entry): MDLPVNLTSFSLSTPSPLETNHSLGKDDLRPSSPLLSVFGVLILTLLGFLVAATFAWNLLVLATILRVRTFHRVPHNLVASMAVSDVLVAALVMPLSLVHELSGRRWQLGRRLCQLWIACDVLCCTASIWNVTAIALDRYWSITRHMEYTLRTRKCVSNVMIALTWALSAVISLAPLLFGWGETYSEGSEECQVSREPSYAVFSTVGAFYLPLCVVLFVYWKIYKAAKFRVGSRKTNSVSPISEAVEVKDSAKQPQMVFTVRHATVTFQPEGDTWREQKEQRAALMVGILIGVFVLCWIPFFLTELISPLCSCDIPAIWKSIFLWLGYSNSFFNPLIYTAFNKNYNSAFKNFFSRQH
Sequence of 5-ht1e (P28566 whole entry): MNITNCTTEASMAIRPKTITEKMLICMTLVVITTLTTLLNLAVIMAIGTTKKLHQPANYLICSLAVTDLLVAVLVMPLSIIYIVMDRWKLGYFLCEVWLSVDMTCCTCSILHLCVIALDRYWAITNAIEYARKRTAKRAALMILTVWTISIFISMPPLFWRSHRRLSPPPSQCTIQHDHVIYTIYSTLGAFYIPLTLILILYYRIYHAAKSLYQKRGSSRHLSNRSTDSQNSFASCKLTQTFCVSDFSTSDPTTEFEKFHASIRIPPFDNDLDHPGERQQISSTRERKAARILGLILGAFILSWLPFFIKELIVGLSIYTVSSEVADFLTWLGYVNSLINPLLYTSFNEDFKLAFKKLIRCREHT

SMILES | Ki (5-HT6) | Ki (5-HT7) | EC50 (r5-HT2A; [5]) | Ki (5-HT3) | Ki (5-HT1D) | Emax (h5-HT2B) | EC50 (h5-HT2B; [6]) | activity in the HTR assay (active / inactive) (Male C57BL/6J mice; SC) | Ki (5-HT2A receptor [1]) | Ki (5-HT1A; 5-HT1A affinity) | EC50 (h5-HT2A) | Emax (h5-HT2A) | Ki (human 5-HT2C receptor [2]) | Ki (5-HT1B; 5-HT1B affinity) | Ki (human 5-HT2C receptor [3]) | Ki (5-ht1e) | Emax (h5-HT2C) | Ki (5-HT2A receptor [4]) | Ki (5-ht5a; 5-ht5a affinity) | Emax (r5-HT2C) | also measured
COc1cc(CCNCc2cccc(Br)c2)c(OC)cc1I [Compound 4d, N-(3-Bromobenzyl)-2-(4-iodo-2,5-dimethoxyphenyl)ethan-1-amine] | 175 nM | 355 nM | 14 nM | > 10000 nM | 162 nM | 90 ± 2% | 85 nM | inactive | 0.57 nM | 670 nM | 17 nM | 87.5 ± 1.3% | 1.62 nM | 1570 nM | 7.59 nM | 792 nM | 74 ± 5% | 3.98 nM | 1010 nM | 101 ± 2% | r5-HT2A Emax (r5-HT2A; percentage of the maximum response to 5-HT): 68.5 ± 0.9%; EC50 (r5-HT2A; r5-HT2A pEC50 ± SEM, Ca2+ mobilization): 15.8 nM; EC50 (h5-HT2B; h5-HT2B pEC50 ± SEM, Ca2+ mobilization, NA = not active, Emax ≤ 15%): 89.1 nM; Ki (5-HT2B; 5-HT2B pKi ± SEM): 12.9 nM; Ki (5-ht5a; 5-ht5a pKi ± SEM): 1000 nM; EC50 (r5-HT2C; [7]): 36.3 nM
COc1cc(CCNCc2ccc(Br)cc2)c(OC)cc1I [Compound 4e, N-(4-Bromobenzyl)-2-(4-iodo-2,5-dimethoxyphenyl)ethan-1-amine] | 350 nM | 641 nM | 150 nM | 2460 nM | 311 nM | 90 ± 2% | 610 nM | None of the phenethylamines or tryptamines with 4-substituted N-benzyl groups, 4b, 4e, 5c, or 5f, was active | 3.24 nM | 649 nM | 170 nM | 88 ± 1.4% | 3.31 nM | 5090 nM | 45.7 nM | > 10000 nM | 77 ± 5% | 52.5 nM | 1850 nM | 105 ± 2% | Emax (r5-HT2A): 67.3 ± 0.9%; Ki (5-HT1B; 5-HT1B pKi ± SEM): 6030 nM; Ki (5-HT2B; 5-HT2B affinity): 68 nM; EC50 (h5-HT2C; h5HT2C EC50, Ca2+ mobilization): 200 nM; EC50 (h5-HT2C; h5HT2C pEC50 ± SEM, Ca2+ mobilization): 219 nM; EC50 (r5-HT2C; [8]): 290 nM
COc1ccc2[nH]cc(CCNCc3ccccc3Br)c2c1 [Compound 5d, N-(2-Bromobenzyl)-2-(5-methoxy-1H-indol-3-yl)ethan-1-amine] | 203 nM | 1090 nM | 450 nM | 6170 nM | 782 nM | ≤ 15% | 168 nM | failed to induce the HTR; also recorded: inactive | 2.34 nM | 286 nM | 30 nM | 74.7 ± 1.5% | 14.1 nM | > 10000 nM | 100 nM | > 10000 nM | 94 ± 5% | 25.1 nM | > 10000 nM | 104 ± 3% | Emax (r5-HT2A): 49.7 ± 1.2%; selectivity h5-HT2A versus h5-HT2C, affinity at the [125I]-DOI-labeled receptors (5-HT2A receptor [1]; agonist-labeled receptors): 6 fold; Ki (5-HT2B; 5-HT2B pKi ± SEM): 24 nM; EC50 (h5-HT2C; h5HT2C EC50, Ca2+ mobilization): 439 nM; EC50 (r5-HT2C; [8]): 898 nM
COc1cccc(CNCCc2c[nH]c3ccc(OC)cc23)c1 [Compound 5b, N-(3-Methoxybenzyl)-2-(5-methoxy-1H-indol-3-yl)ethan-1-amine] | 25 nM | 406 nM | 34 nM | > 10000 nM | 334 nM | ≤ 15% | 949 nM | active | 1.05 nM | 335 nM | 6.2 nM | 70 ± 1% | 5.89 nM | > 10000 nM | 38 nM | > 10000 nM | 65 ± 5% | 7.76 nM | 1260 nM | 102 ± 2% | Emax (r5-HT2A): 52.2 ± 0.9%; max counts (Male C57BL/6J mice; HTR counts, SC): 9.2; ED50 (Male C57BL/6J mice; Mus musculus, sc, read-out: ED50 mg/kg (95% CI), mouse head twitch): 3.28 mg/kg; active doses (Male C57BL/6J mice; SC, mouse head twitch): 10 mg/kg; magnitude of peak effect × vehicle (Male C57BL/6J mice; SC, mouse head twitch): 3.7 × vehicle; maximally effective dose (Male C57BL/6J mice; SC, mouse head twitch): 10 mg/kg; HTR at 30 mg/kg (Male C57BL/6J mice; biphasic bell-shaped dose–response, 30 mg/kg SC): inactive; Ki (5-HT1A; 5-HT1A pKi ± SEM): 331 nM; Ki (5-HT2B; 5-HT2B affinity): 2.5 nM; EC50 (h5-HT2C; h5HT2C EC50, Ca2+ mobilization): 178 nM; EC50 (r5-HT2C; [8]): 168 nM; EC50 (r5-HT2C; [7]): 166 nM
